Data reported in ChEMBL document CHEMBL1268872 (Bioorg Med Chem Lett, 2010).

What was measured:
[1] = molecular target: T1, Mitogen-activated protein kinase 14 (Homo sapiens, UniProt Q16539); assay: Binding affinity to unphosphorylated p38alpha assessed as change in melting temperature
[2] = molecular target: T1, Mitogen-activated protein kinase 14; assay: Binding affinity to unphosphorylated p38alpha by fluoroprobe binding assay
[3] = molecular target: T1, Mitogen-activated protein kinase 14; assay: Binding affinity to phosphorylated p38alpha assessed as change in melting temperature
[4] = molecular target: T1, Mitogen-activated protein kinase 14; assay: Binding affinity to phosphorylated p38alpha by fluoroprobe binding assay
[5] = molecular target: T2, Ephrin type-B receptor 2 (Homo sapiens, UniProt P29323); assay: Inhibition of EPHB2
T2 sequence (P29323 whole entry): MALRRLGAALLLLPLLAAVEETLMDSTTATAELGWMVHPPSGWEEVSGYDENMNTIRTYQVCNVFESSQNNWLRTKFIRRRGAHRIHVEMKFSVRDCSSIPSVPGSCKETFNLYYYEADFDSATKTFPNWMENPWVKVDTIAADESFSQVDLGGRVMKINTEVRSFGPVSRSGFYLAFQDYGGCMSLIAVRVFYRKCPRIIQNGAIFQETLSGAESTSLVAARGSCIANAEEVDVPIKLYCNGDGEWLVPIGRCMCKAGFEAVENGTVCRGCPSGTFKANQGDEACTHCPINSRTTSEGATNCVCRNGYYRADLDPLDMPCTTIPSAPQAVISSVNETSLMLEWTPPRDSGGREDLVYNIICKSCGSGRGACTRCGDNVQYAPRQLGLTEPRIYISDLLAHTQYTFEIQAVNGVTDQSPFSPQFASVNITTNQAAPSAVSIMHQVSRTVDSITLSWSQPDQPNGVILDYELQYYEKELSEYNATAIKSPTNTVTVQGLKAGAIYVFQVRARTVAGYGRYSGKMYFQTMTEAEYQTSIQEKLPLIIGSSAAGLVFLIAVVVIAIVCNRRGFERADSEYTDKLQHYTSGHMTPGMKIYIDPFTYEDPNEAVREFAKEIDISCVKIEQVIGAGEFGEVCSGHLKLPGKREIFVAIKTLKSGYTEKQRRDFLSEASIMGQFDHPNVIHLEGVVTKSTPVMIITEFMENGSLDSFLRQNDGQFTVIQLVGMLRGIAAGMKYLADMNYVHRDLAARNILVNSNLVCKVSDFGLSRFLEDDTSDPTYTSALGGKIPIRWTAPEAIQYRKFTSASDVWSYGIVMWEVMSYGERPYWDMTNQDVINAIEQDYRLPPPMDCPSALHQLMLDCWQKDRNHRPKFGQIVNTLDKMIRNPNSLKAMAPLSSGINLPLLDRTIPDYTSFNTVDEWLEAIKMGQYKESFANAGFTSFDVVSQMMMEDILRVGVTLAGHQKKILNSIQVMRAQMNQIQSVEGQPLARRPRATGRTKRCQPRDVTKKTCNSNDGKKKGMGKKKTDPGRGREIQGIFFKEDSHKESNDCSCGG

[6] = molecular target: T1, Mitogen-activated protein kinase 14; assay: Inhibition of p38alpha autophosphorylation
[7] = molecular target: Serine/threonine-protein kinase B-raf (Homo sapiens, UniProt P15056); assay: Inhibition of BRAF
Sequence of Serine/threonine-protein kinase B-raf (P15056 whole entry): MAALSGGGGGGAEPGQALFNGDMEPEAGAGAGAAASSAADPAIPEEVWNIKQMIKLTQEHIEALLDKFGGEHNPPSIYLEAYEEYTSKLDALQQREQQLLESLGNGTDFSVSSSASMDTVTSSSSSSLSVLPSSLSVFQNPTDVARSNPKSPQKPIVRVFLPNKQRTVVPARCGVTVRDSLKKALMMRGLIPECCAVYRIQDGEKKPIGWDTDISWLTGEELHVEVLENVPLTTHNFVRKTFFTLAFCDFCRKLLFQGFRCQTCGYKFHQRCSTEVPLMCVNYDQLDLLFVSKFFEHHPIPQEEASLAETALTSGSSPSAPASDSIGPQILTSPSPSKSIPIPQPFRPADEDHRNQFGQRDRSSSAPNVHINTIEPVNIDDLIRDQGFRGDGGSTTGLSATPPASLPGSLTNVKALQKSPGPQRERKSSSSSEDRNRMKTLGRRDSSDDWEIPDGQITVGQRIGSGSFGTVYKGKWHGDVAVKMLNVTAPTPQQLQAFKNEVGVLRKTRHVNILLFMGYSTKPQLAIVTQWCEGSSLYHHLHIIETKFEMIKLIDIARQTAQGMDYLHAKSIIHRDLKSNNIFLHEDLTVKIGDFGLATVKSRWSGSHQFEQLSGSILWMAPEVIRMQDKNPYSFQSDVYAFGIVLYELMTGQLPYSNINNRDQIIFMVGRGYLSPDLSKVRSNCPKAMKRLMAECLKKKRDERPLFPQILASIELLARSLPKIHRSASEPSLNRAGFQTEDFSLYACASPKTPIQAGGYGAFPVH

[8] = molecular target: T1, Mitogen-activated protein kinase 14; assay: Inhibition of p38alpha by fluoroprobe binding assay

T1 sequence (Q16539 whole entry): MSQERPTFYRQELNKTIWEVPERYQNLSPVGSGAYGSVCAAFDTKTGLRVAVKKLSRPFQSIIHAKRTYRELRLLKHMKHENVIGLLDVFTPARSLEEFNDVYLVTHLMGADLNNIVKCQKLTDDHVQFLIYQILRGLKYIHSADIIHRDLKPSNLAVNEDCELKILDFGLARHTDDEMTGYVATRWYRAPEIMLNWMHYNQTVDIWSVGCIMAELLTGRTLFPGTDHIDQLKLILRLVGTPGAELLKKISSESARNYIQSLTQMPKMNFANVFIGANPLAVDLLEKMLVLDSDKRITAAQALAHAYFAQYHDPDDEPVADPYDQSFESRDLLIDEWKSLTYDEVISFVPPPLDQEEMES

ΔTm [1] | IC50 [2] | ΔTm [3] | IC50 [7] | IC50 [8] | Structure (SMILES) | IC50 [4] | IC50 [5] | IC50 [6]
8.8 °C | 25 nM | 7.1 °C | – | – | NC(=O)Cc1cccc(-n2nc(-c3ccccc3F)cc2NC(=O)Nc2cccc(Cl)c2Cl)c1 | 40 nM | – | –
12.8 °C | – | 9.1 °C | 17 nM | – | CC(C)(C)c1cc(NC(=O)Nc2cccc(Cl)c2Cl)n(-c2cccc(CC(N)=O)c2)n1 | – | 82 nM | –
– | – | – | – | > 10000 nM | CC(C)(C)c1cc(NC(=O)Nc2cccc3ccccc23)n(-c2cccc(C(=O)N3C(=O)OC[C@@H]3c3ccccc3)c2)n1 | – | – | –
8 °C | 119 nM | 5.4 °C | – | – | NC(=O)Cc1cccc(-n2nc(-c3ccccc3)cc2NC(=O)Nc2cccc(Cl)c2Cl)c1 | 79 nM | – | –
– | – | – | – | 7 nM | CC(C)(C)c1cc(NC(=O)Nc2cccc(Cl)c2Cl)n(-c2ccc(CC(=O)N3CCS(=O)(=O)CC3)cc2)n1 | – | – | –
9.1 °C | – | 8.6 °C | – | – | CC(C)(C)c1cc(NC(=O)Nc2cccc3ccccc23)n(-c2cccc(CC(N)=O)c2)n1 | – | – | –

Structure (SMILES) | ΔTm [1] | IC50 [2] | ΔTm [3] | IC50 [7] | IC50 [8] | IC50 [4] | IC50 [5] | IC50 [6]
NC(=O)Cc1cccc(-n2nc(C3CCCC3)cc2NC(=O)Nc2cccc(Cl)c2Cl)c1 | 12.2 °C | – | – | – | – | 10 nM | – | –
NC(=O)Cc1cccc(-n2nc(-c3cccs3)cc2NC(=O)Nc2cccc(Cl)c2Cl)c1 | 11.2 °C | – | 8.5 °C | – | – | 66 nM | > 50000 nM | > 5000 nM
NC(=O)Cc1cccc(-n2nc(-c3ccsc3)cc2NC(=O)Nc2cccc(Cl)c2Cl)c1 | 11.6 °C | 15 nM | 9.3 °C | – | – | 28 nM | – | –
